Experimental data from patent US20070082055A1, “Stable micronized candesartan cilexetil and methods for preparing thereof” (priority 2005, published 2007).
Values joined by “and” are separate entries in the source; they are usually repeats but may differ in a detail not shown here. Equal entries are not always repeated. Where two headings read alike, the source gives them in different places. Each block holds one compound with its values, some of them ahead of it.

Legend:
[1] = for Desethyl-CNS: as obtained
[2] = cited from earlier work
[3] = Table 3, after 2 weeks at 55° C.
[4] = after maintaining for 2 weeks (oven at 55° C.)

CNS-desethyl ([1]; time of slurry 2 hr, 2 weeks): 0.07 w/w %
CNS-desethyl ([1]; time of slurry 2 hr, T = 0): 0.03 w/w %
CNS-desethyl ([1]; time of slurry 20 hr, 2 weeks): 0.03 w/w %
SMILES: CCOc1nc2cccc(C(=O)OC(C)OC(=O)OC3CCCCC3)c2n1Cc1ccc(-c2ccccc2-c2nnn[nH]2)cc1 (racemic) [Candesartan cilexetil, (±)-1-[[(cyclohexyloxy)carbonyl]oxy]ethyl-2-ethoxy-1-[[2′-(1H-tetrazol-5-yl)[1,1 ′biphenyl]-4-yl]methyl]-1H-benzimidazole-7-carboxylate]
CNS-desethyl ([1]; time of slurry 20 hr, T = 0): LTDL (LTDL means less than detection limit)
solubility in methanol ([2]; methanol): sparingly soluble
solubility in water ([2]; water): sparingly soluble

2-N-ethyl CNS ([1]; 2 weeks, HPLC): 0.09 w/w % and 0.29 w/w %
CNS desethyl ([1]; 2 weeks, HPLC): 0.14 w/w % and 0.41 w/w %
CNS desethyl ([1]; T = 0, HPLC): 0.04 w/w % and 0.24 w/w %
SMILES: CCOc1nc2cccc(C(=O)OC(C)OC(=O)OC3CCCCC3)c2n1Cc1ccc(-c2ccccc2-c2nnn[nH]2)cc1 (centres unmarked) [Fine particle size, candesartan cilexetil]

2-N-ethyl CNS [1, 3]: 0.03 w/w %
CNS desethyl [1, 3]: 0.05 w/w %
SMILES: CCOc1nc2cccc(C(=O)OC(C)OC(=O)OC3CCCCC3)c2n1Cc1ccc(-c2ccccc2-c2nnn[nH]2)cc1 (centres unmarked) [Product B, candesartan cilexetil]
1-N-ethyl CNS [1, 3]: LTDL (LTDL means less than detection limit)

2-N-ethyl CNS ([1]; Table 3, before storage): 0.03 w/w %
CNS desethyl ([1]; Table 3, before storage): 0.05 w/w %
level of desethyl-CNS ([1]; before storage): 0.05 % w/w by HPLC
SMILES: CCOc1nc2cccc(C(=O)OC(C)OC(=O)OC3CCCCC3)c2n1Cc1ccc(-c2ccccc2-c2nnn[nH]2)cc1 (centres unmarked) [Product, candesartan cilexetil]
1-N-ethyl CNS ([1]; Table 3, before storage): LTDL (LTDL means less than detection limit)

CNS desethyl ([1]; Table 3, before storage): 0.04 w/w %
SMILES: CCOc1nc2cccc(C(=O)OC(C)OC(=O)OC3CCCCC3)c2n1Cc1ccc(-c2ccccc2-c2nnn[nH]2)cc1 (centres unmarked) [Sample 1, candesartan cilexetil]
1-N-ethyl CNS ([1]; Table 3, before storage): LTDL (LTDL means less than detection limit)
2-N-ethyl CNS ([1]; Table 3, before storage): LTDL (LTDL means less than detection limit)

1-N-ethyl CNS [1, 3]: 0.04 w/w %
2-N-ethyl CNS [1, 3]: 0.15 w/w %
CNS desethyl [1, 3]: 0.20 w/w %
SMILES: CCOc1nc2cccc(C(=O)OC(C)OC(=O)OC3CCCCC3)c2n1Cc1ccc(-c2ccccc2-c2nnn[nH]2)cc1 (centres unmarked) [Sample 1B, candesartan cilexetil]

CNS desethyl ([1]; 2 weeks, HPLC): 0.10 w/w % and 0.06 w/w %
CNS desethyl ([1]; T = 0, HPLC): 0.08 w/w % and 0.03 w/w %
SMILES: CCOc1nc2cccc(C(=O)OC(C)OC(=O)OC3CCCCC3)c2n1Cc1ccc(-c2ccccc2-c2nnn[nH]2)cc1 (centres unmarked) [Slurried fine particle size sample, candesartan cilexetil]

level of desethyl-CNS [1, 4]: 0.07 % w/w by HPLC
Desethyl-CNS ([1]; before storage): 0.03 % by area HPLC
SMILES: CCOc1nc2cccc(C(=O)OC(C)OC(=O)OC3CCCCC3)c2n1Cc1ccc(-c2ccccc2-c2nnn[nH]2)cc1 (centres unmarked) [candesartan cilexetil Form I, candesartan cilexetil]

CNS-desethyl ([1]; fine particle size, time of slurry 3 hr, 2 weeks): 0.10 w/w %
CNS-desethyl ([1]; fine particle size, time of slurry 3 hr, T = 0): 0.07 w/w %
CNS-desethyl ([1]; fine particle size, time of slurry 6 hr, 2 weeks): 0.07 w/w %
CNS-desethyl ([1]; fine particle size, time of slurry 6 hr, T = 0): 0.06 w/w %
CNS-desethyl ([1]; fine particle size, time of slurry 9 hr, 2 weeks): 0.06 w/w %
CNS-desethyl ([1]; fine particle size, time of slurry 9 hr, T = 0): 0.05 w/w %
CNS-desethyl ([1]; fine particle size, time of slurry 13 hr, 2 weeks): 0.06 w/w %
CNS-desethyl ([1]; fine particle size, time of slurry 13 hr, T = 0): 0.05 w/w %
CNS-desethyl ([1]; fine particle size, time of slurry 23 hr, 2 weeks): 0.05 w/w %
CNS-desethyl ([1]; fine particle size, time of slurry 23 hr, T = 0): 0.04 w/w %
SMILES: CCOc1nc2cccc(C(=O)OC(C)OC(=O)OC3CCCCC3)c2n1Cc1ccc(-c2ccccc2-c2nnn[nH]2)cc1 (centres unmarked) [candesartan cilexetil]

level of desethyl-CNS [1, 4]: 0.41 % w/w by HPLC
level of desethyl-CNS ([1]; before storage): 0.24 % w/w by HPLC
SMILES: CCOc1nc2cccc(C(=O)OC(C)OC(=O)OC3CCCCC3)c2n1Cc1ccc(-c2ccccc2-c2nnn[nH]2)cc1 (centres unmarked) [micronized CNS-Cryst, candesartan cilexetil]

level of desethyl-CNS [1, 4]: 0.14 % w/w by HPLC
level of desethyl-CNS ([1]; before storage): 0.04 % w/w by HPLC
SMILES: CCOc1nc2cccc(C(=O)OC(C)OC(=O)OC3CCCCC3)c2n1Cc1ccc(-c2ccccc2-c2nnn[nH]2)cc1 (centres unmarked) [micronized material, candesartan cilexetil]

level of desethyl-CNS ([1]; after maintaining for 2 weeks (oven at 55° C.), listed as obtained product): 0.10 % w/w by HPLC
Desethyl-CNS ([1]; before storage): 0.08%
SMILES: CCOc1nc2cccc(C(=O)OC(C)OC(=O)OC3CCCCC3)c2n1Cc1ccc(-c2ccccc2-c2nnn[nH]2)cc1 (centres unmarked) [stable candesartan cilexetil Form I, candesartan cilexetil]

desethyl-CNS level ([1]; after maintaining for 2 weeks): 0.06 % area by HPLC
level of desethyl-CNS ([1]; before storage): 0.03 % w/w by HPLC
SMILES: CCOc1nc2cccc(C(=O)OC(C)OC(=O)OC3CCCCC3)c2n1Cc1ccc(-c2ccccc2-c2nnn[nH]2)cc1 (centres unmarked) [stable micronized candesartan Form I, candesartan cilexetil]
